Results reported in US7091345B2, “Amino-substituted dihydropyrimido[4,5-D]pyrimidinone derivatives” (Hoffmann-La Roche Inc., priority 2002, dated 2006).
Where a name gives a salt, the structure may show the parent alone.

Experiments:
Lck (p56^lck) = molecular target: T1, Lck (p56^lck) (Homo sapiens, UniProt P06239); experiment: SRC-Inhibitor-Assay, time-resolved fluorescence kinase assay (Lck); format: biochemical; details: ATP 5 μM; enzyme 2.5 U/ml; pre-incubation 15 min at 15° C.; read-out: IC 50 (lck)
T1 construct: purchased Upstate (UBI)
T1 sequence (P06239 whole entry, species assumed): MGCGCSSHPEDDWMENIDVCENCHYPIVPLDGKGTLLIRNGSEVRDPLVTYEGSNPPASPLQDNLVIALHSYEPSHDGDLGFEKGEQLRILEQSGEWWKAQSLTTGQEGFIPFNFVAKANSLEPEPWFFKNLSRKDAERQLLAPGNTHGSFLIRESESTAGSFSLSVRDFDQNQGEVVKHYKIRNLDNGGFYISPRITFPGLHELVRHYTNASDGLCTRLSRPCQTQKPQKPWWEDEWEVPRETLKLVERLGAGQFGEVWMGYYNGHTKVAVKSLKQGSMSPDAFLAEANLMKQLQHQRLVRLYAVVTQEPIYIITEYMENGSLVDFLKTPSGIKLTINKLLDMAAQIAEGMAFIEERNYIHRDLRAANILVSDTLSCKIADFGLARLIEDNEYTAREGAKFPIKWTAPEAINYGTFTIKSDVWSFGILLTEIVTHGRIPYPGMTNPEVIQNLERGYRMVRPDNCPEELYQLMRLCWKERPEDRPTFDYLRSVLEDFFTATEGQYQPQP
Experimental: (§1) The activity of the compounds according to this invention as inhibitors for the src-family tyrosine kinases was shown by using the following assay.
(§2) SRC-Inhibitor-Assay Parameters:
(§3) Assay buffer: 4 mM MgCl2 • 2 mM TCEP • 50 mM HEPES • 0,1% Tween 20 • pH 7.3
(§4) Material: Eu-labelled phosphotyrosine antibody:—for Lck Cisbio Mab PT66-K, for Src EG&G Wallac PT66 Eu-W1024 (all commercially available). Peptides: Ro: NH2-A-E-E-E-I-Y-G-E-F-E-A-K-K-K-K-CONH2, and Ja133-Ro: Ja133-G-Aminocaprylic acid-A-E-E-E-I-Y-G-E-F-E-A-K-K-K-K-CONH2, wherein Ja133 is LightCycler-Red 640-N-hydroxy succinimide ester; whereby both peptides were synthesized by an optimized solid phase peptide synthesis protocol (Merrifield, Fed. Proc. Fed. Amer. Soc. Exp. Biol. 21 (1962) 412) on a Zinsser SMP350 peptide synthesizer. Shortly, the peptide was assembled on 160 mg (22.8 μmol scale) of a Rink-Linker modified polystyrene solid phase by repeatedly conjugating an twenty fold excess of amino acids each protected by temporary piperidine labile Fmoc- and permanent acid labile tert-Bu-, BOC— and Otert-Bu-groups depending on the side chain function. The substrate sequence AEEEIYGEFEAKKKK was N-terminal additionally mounted with the spacer amino acids Aminocaprylic acid and Glycin. After cleavage of the N-terminal temporary protecting group the still attached and protected peptide was labeled with a 1.5 fold amount of LightCycler-Red 640-N-hydroxy succinimide ester (purchased by Roche Diagnostics GmbH) and triethylamine. After 3 hrs. the resin was washed with Dimethylformamide and Isopropanol until the eluates of the blue resin got colourless. […] The substrate was finally isolated by a preparative reverse phase HPLC purification. The purification yielded 12.2 mg RP-HPLC single peak pure blue material (lyophilisate). The identity was proven by MALDI mass spectroscopy [2720.0]. Enzymes: Upstate Lck (p56^lck, active), Upstate Src (p60^c-src, partially purified) were purchased from UBI. Time-resolved Fluorescence Assay: Reader: Perkin Elmer, Wallac Viktor 1420-040 multilabel counter; Liquid handling system: Beckman Coulter, Biomek 2000. ATP, Tween 20, HEPES were purchased from Roche Molecular Biochemicals, MgCl2 and MnCl2 were purchased from Merck Eurolab, TCEP was purchased from Pierce, 384 Well low volume fluorescence plates was purchased from Falcon. Assay Description:
(§5) At first the enzyme is pre-incubated for 15 min. at 15° C. in aqueous solution with corresponding amounts of inhibitors according to this invention. Then the phosphorylation reaction is started by adding a reaction mixture, containing ATP, Peptide and PT66, and subsequent shaking. The proceeding of this reaction is immediately monitored using time resolved fluorescence spectroscopy in a suitable well plate reader.
(§6) The IC50-values can be obtained from the reaction rates by using a non-linear curve fit (Excelfit).

Src (p60^c-src) = molecular target: T2, Src (p60^c-src) (Homo sapiens, UniProt P12931); experiment: SRC-Inhibitor-Assay, time-resolved fluorescence kinase assay (Src); format: biochemical; details: ATP 5 μM; enzyme 2.5 U/ml; pre-incubation 15 min at 15° C.; read-out: IC 50 (src)
T2 construct: purchased Upstate (UBI)
T2 sequence (P12931 whole entry): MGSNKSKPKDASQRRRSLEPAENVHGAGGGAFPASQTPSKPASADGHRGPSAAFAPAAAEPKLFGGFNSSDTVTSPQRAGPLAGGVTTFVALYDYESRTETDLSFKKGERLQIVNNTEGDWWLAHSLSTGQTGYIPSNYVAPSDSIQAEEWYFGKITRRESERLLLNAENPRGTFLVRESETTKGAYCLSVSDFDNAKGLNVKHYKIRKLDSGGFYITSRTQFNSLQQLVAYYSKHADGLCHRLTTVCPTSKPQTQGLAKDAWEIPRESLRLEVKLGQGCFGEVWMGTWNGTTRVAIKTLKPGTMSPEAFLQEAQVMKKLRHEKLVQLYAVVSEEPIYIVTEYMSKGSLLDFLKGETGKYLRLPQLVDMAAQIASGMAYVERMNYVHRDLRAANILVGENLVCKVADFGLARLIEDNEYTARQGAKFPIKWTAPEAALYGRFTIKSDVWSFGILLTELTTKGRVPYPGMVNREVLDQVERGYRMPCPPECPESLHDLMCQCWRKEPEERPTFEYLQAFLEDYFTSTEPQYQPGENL
Experimental: as §1, §2, §3, §4, §5, §6

[1] = Pharmacokinetic study in mice, plasma levels after single p.o. dose; format: in vivo; details: male NMRI mice, p.o. single dose 30 mg/kg as micro-suspension, dose-normalised
Experimental: A preferred pharmaceutical preparation was obtained by using the following procedure: • 1. Weigh 4.0 g glass beads in custom made tube GL 25, 4 cm (the beads fill half of the tube). • 2. Add 50 mg compound, disperse with spatulum and vortex. • 3. Add 2 ml gelatin solution (weight beads: gelatin solution=2:1) and vortex. • 4. Cap and wrap in aluminium foil for light protection. • 5. Prepare a counter balance for the mill. • 6. Mill for 4 hours, 20/s in a Retsch mill (for some substances up to 24 hours at 30/s). • 7. Extract suspension from beads with two layers of filter (100 μm) on a filter holder, coupled to a recipient vial by centrifugation at 400 g for 2 min. • 8. Move extract to measuring cylinder. • 9. Repeat washing with small volumes (here 1 ml steps) until final volume is reached or extract is clear. • 10. Fill up to final volume with gelatin and homogenise.
The above described preparation yields micro-suspensions of the compounds of formula I with particle sizes between 1 and 10 μm. The suspensions are suitable for oral applications and were used in the in vivo pharmacokinetic testings described below.
To male NMRI mice of 29–35 g body weight the compounds according to this invention were given p.o. as micro-suspensions (7.5% modified gelatine and 0.22% NaCl) in doses of 30 mg/kg (Drug concentration: 3 mg/mL. Administered volume: 10 mL/kg) and as single dose administration. Study Protocol:
Animals were fasted overnight up to 4 hrs. after administration of the compound. For each single p.o. dose the mice were allocated to 3 groups with 4 animals each. Blood samples are taken from group 1 at 0.5, 3 and 24 hours, from group 2 at 1 and 6 hours, and from group 3 at 2 and 8 hours.
Blood samples of about 200 μl were obtained by retro-orbital puncture. Plasma samples were obtained from heparinized/EDTA blood by centrifugation at room temperature, and stored frozen at −20° C. until analysis.
Plasma was deproteinated and subsequently analysed for plasma levels of the compound by a compound specific HPLC-MS method. WinNonlin™ was used to calculate the pharmacokinetic parameters.

| SMILES | IC50 (Lck (p56^lck)) [nM] | IC50 (Src (p60^c-src)) [nM] | AUC = area under the curve from T = 0 to T = 24 hrs [1] |
| --- | --- | --- | --- |
| CC1c2cnc(Nc3ccc4c(c3)S(=O)(=O)CCO4)nc2N(C)C(=O)N1c1ccccc1Br (single isomer, unassigned; enantiomer 1) [Example 8a, 3-(2-Bromo-phenyl)-7-(4,4-dioxo-3,4-dihydro-2H-4λ^6-benzo[1,4]oxathiin-6-ylamino)-1,4-dimethyl-3,4-dihydro-1H-pyrimido[4,5-d]pyrimidin-2-one; enantiomer 1] | 8.1 | 0.4 | – |
| CC(=O)N1CCC2(CC1)Oc1ccc(Nc3ncc4c(n3)N(C)C(=O)N(c3ccccc3Br)C4)cc1O2 [Example 6, 3-(2-bromo-phenyl)-3,4-dihydro-7-(1′-acetyl-spiro[1,3-benzodioxolo-2,4′-piperidine]-5-yl)amino-1-methyl-pyrimido[4,5-d]pyrimidin-2(1H)-one] | – | – | 315 (h * ng/ml))/(mg/kg) |
| CN1C(=O)N(c2c(F)cccc2Br)Cc2cnc(Nc3ccc4c(c3)S(=O)(=O)CCO4)nc21 [Example 8, 3-(2-bromo-6-fluoro-phenyl)-7-(4,4-dioxo-3,4-dihydro-2H-4λ^6-benzo[1,4]oxathiin-6-ylamino)-1-methyl-3,4-dihydro-1H-pyrimido[4,5-d]pyrimidin-2-one] | 4.7 | 1.8 | – |
| CN1CCS(=O)(=O)c2cc(Nc3ncc4c(n3)N(C)C(=O)N(c3c(F)cccc3Br)C4)ccc21 [Example 11, 3-(2-bromo-6-fluoro-phenyl)-1-methyl-7-(4-methyl-1,1-dioxo-1,2,3,4-tetrahydro-1lambda*6*-benzo[1,4]thiazin-7-ylamino)-3,4-dihydro-1H-pyrimido[4,5-d]pyrimidin-2-one] | 4.3 | 0.8 | – |
| CCN(CC)CCOc1ccc(Nc2ncc3c(n2)N(C)C(=O)N(c2ccccc2Br)C3)cc1 [Reference cpd 43 from WO 00/24744A, 3-(2-bromo-phenyl)-7-[4-(2-diethylamino-ethoxy)-phenylamino]-1-methyl-3,4-dihydro-1H-pyrimido[4,5-d]pyrimidin-2-one, reference compound] | – | – | 69.3 (h * ng/ml))/(mg/kg) |

Continued, in another order:

| IC50 (Lck (p56^lck)) [nM] | IC50 (Src (p60^c-src)) [nM] | SMILES | AUC = area under the curve from T = 0 to T = 24 hrs [1] |
| --- | --- | --- | --- |
| 0.0246 | 0.019 | CC1c2cnc(Nc3ccc4c(c3)S(=O)(=O)CC(=O)N4C)nc2N(C)C(=O)N1c1ccccc1Br (single isomer, unassigned; enantiomer 1) [Example 13-52, 3-(2-Bromo-phenyl)-1,4-dimethyl-7-(4-methyl-1,1,3-trioxo-1,2,3,4-tetrahydro-1λ^6-benzo[1,4]thiazin-7-ylamino)-3,4-dihydro-1H-pyrimido[4,5-d]pyrimidin-2-one; enantiomer 1] | – |
| 1340 | 2970 | CC1c2cnc(Nc3ccc4c(c3)S(=O)(=O)CCO4)nc2N(C)C(=O)N1c1ccccc1Br (single isomer, unassigned; enantiomer 2) [Example 13-50, 3-(2-Bromo-phenyl)-7-(4,4-dioxo-3,4-dihydro-2H-4λ^6-benzo[1,4]oxathiin-6-ylamino)-1,4-dimethyl-3,4-dihydro-1H-pyrimido[4,5-d]pyrimidin-2-one; enantiomer 2] | – |
| 1280 | 2520 | CC1c2cnc(Nc3ccc4c(c3)S(=O)(=O)CC(=O)N4C)nc2N(C)C(=O)N1c1ccccc1Br (single isomer, unassigned; enantiomer 2) [Example 13-51, 3-(2-Bromo-phenyl)-1,4-dimethyl-7-(4-methyl-1,1,3-trioxo-1,2,3,4-tetrahydro-1λ^6-benzo[1,4]thiazin-7-ylamino)-3,4-dihydro-1H-pyrimido[4,5-d]pyrimidin-2-one; enantiomer 2] | – |
| 4.2 | 1.5 | CN1Cc2ccc(Nc3ncc4c(n3)N(C)C(=O)N(c3ccccc3Br)C4)cc2C1 [Example 13-3, 3-(2-bromo-phenyl)-1-methyl-7-(2-methyl-2,3-dihydro-1H-isoindol-5-ylamino)-3,4-dihydro-1H-pyrimido[4,5-d]pyrimidin-2-one; hydrochloride salt] | – |
| 29.4 | 17 | CN1C(=O)N(c2ccccc2Br)Cc2cnc(Nc3ccc4c(c3)S(=O)(=O)CO4)nc21 [Example 13-4, 3-(2-bromo-phenyl)-7-(3,3-dioxo-2,3-dihydro-3lambda*6*-benzo[1,3]oxathiol-5-ylamino)-1-methyl-3,4-dihydro-1H-pyrimido[4,5-d]pyrimidin-2-one] | – |
| 20 | 17 | CN1C(=O)N(c2ccccc2Br)Cc2cnc(Nc3ccc4c(c3)OCO4)nc21 [Example 13-8, 7-(benzo[1,3]dioxol-5-ylamino)-3-(2-bromo-phenyl)-1-methyl-3,4-dihydro-1H-pyrimido[4,5-d]pyrimidin-2-one] | – |
| 21 | 11 | CN1C(=O)c2ccc(Nc3ncc4c(n3)N(C)C(=O)N(c3c(F)cccc3Br)C4)cc2C1=O [Example 13-16, 5-[6-(2-bromo-6-fluoro-phenyl)-8-methyl-7-oxo-5,6,7,8-tetrahydro-pyrimido[4,5-d]pyrimidin-2-ylamino]-2-methyl-isoindole-1,3-dione] | – |
| 6.7 | 2.5 | O=C1CS(=O)(=O)c2cc(Nc3ncc4c(n3)NC(=O)N(c3c(F)cccc3Br)C4)ccc2N1 [Example 13-29] | – |
| 37.5 | 72.8 | COc1ccc(Br)c(N2Cc3cnc(Nc4ccc5c(c4)S(=O)(=O)CCO5)nc3N(C)C2=O)c1 [Example 13-48, 3-(2-Bromo-5-methoxy-phenyl)-7-(4,4-dioxo-3,4-dihydro-2H-4λ^6-benzo[1,4]oxathiin-6-ylamino)-1-methyl-3,4-dihydro-1H-pyrimido[4,5-d]pyrimidin-2-one] | – |
| 5.4 | 7.2 | COc1cccc(F)c1N1Cc2cnc(Nc3ccc4c(c3)S(=O)(=O)CCO4)nc2N(C)C1=O [Example 13-49, 7-(4,4-Dioxo-3,4-dihydro-2H-4λ^6-benzo[1,4]oxathiin-6-ylamino)-3-(2-fluoro-6-methoxy-phenyl)-1-methyl-3,4-dihydro-1H-pyrimido[4,5-d]pyrimidin-2-one] | – |
| 12.9 | 4.3 | CN1C(=O)N(c2c(F)cccc2C#N)Cc2cnc(Nc3ccc4c(c3)S(=O)(=O)CCO4)nc21 [Example 13-53, 2-[7-(4,4-Dioxo-3,4-dihydro-2H-4λ^6-benzo[1,4]oxathiin-6-ylamino)-1-methyl-2-oxo-1,4-dihydro-2H-pyrimido[4,5-d]pyrimidin-3-yl]-3-fluoro-benzonitrile] | – |
